The PolyMetriX glass transition set
± gives the standard deviation of the reports.

| SMILES | glass transition temperature [°C] |
| --- | --- |
| *CC(=O)NC(C)C(=O)O* (repeat unit) | 54.60 |
| *c1ccc(NC(=O)c2ccc(NC(=O)c3ccc([Si](C)(C)c4ccc(C(=O)Nc5ccc(C(=O)Nc6ccc(-c7sc(*)c(-c8ccccc8)c7-c7ccccc7)cc6)cc5)cc4)cc3)cc2)cc1 (repeat unit) | 337.00 |
| *Oc1ccc(C(c2ccc(OC(*)=O)cc2)C2C3CCC(C3)C2C)cc1 (repeat unit) | 232.00 |
| *Oc1ccc(C2(c3ccc(OC(=O)CCCCCCCCC(*)=O)cc3)c3ccccc3Cc3ccccc32)cc1 (repeat unit) | 134.00 |
| *c1ccc2c(c1)C(*)(C)CC2(C)C (repeat unit) | 215.50 |
| *CC(*)OCC(CC)CCCC (repeat unit) | -66.00 |
| */N=N/c1ccc([Te]c2ccc(*)cc2)cc1 (repeat unit) | 300.00 |
| *CC(O)COc1ccc(C(C)(C)c2ccc(OCC(O)COc3c(C)cc(C(C)(C)c4cc(C)c(O*)c(C)c4)cc3C)cc2)cc1 (repeat unit) | 100.00 |
| *Oc1ccc(S(=O)(=O)c2ccc(Oc3ccc(C(C)(C)c4ccc(*)c(N)c4)cc3N)cc2)c(N)c1 (repeat unit) | 237.10 |
| *CC(C)(C)C(=O)O* (repeat unit) | -12.00 |
| *Oc1ccc(NC(=O)c2cc(C(c3ccc(C(=O)O)c(C(=O)Nc4ccc(Oc5ccc(C(c6ccc(*)cc6)(C(F)(F)F)C(F)(F)F)cc5)cc4)c3)(C(F)(F)F)C(F)(F)F)ccc2C(=O)O)cc1 (repeat unit) | 260.00 |
| *Oc1ccc(/N=C/C=N/c2ccc(OC(=O)Nc3ccc(Cc4ccc(NC(*)=O)cc4)cc3)cc2)cc1 (repeat unit) | 133.00 |
| *CC(*)OC(=O)c1nn(C(C)=O)c2ccccc12 (repeat unit) | 150.00 |
| *Oc1ccc(/N=N/c2c(C)cc(Cc3cc(C)c(/N=N/c4ccc(OC(=O)c5ccc(C(*)=O)cc5)cc4)c(C)c3[N+](=O)[O-])c([N+](=O)[O-])c2C)cc1 (repeat unit) | 203.00 |
| *Oc1ccc(C(=O)c2ccc(OC(=O)c3ccc(C(C)(C)c4ccc(C(*)=O)cc4)cc3)cc2)cc1 (repeat unit) | 130.00 |
| *Oc1ccc(C(=O)c2cccc(C(=O)c3ccc(Oc4cccc(Cc5cccc(*)c5)c4)cc3)c2)cc1 (repeat unit) | 114.00 |
| *c1ccc(C(=O)Nc2cccc(-n3c(=O)c4cc5c(=O)n(*)c(=O)c5cc4c3=O)c2)cc1 (repeat unit) | 390.00 |
| *Nc1ccc(-c2ccc(NC(=O)c3ccc(NC(=O)c4ccc([Si](C)(C)c5ccc(C(=O)Nc6ccc(C(*)=O)cc6)cc5)cc4)cc3)cc2)cc1 (repeat unit) | 320.00 |
| *c1ccc2c(c1)C(=O)N(c1cc(C(=O)Oc3ccc(C(c4ccc(OC(=O)c5ccc(C)c(N6C(=O)c7ccc(C(*)(C(F)(F)F)C(F)(F)F)cc7C6=O)c5)cc4)(C(F)(F)F)C(F)(F)F)cc3)ccc1C)C2=O (repeat unit) | 289.00 |
| *CC(*)OCCOc1ccc(/C=C(\C#N)C(=O)OC)cc1 (repeat unit) | 47.00 |
| *CC(*)(C)C(=O)OCCCCCCOc1ccc(C(=O)Oc2ccc(OC)cc2)cc1OC (repeat unit) | 49.00 |

| SMILES | glass transition temperature [°C] |
| --- | --- |
| *CC(*)(C)C(=O)OC(COc1cccc2ccccc12)COc1cccc2ccccc12 (repeat unit) | 80.00 |
| *Oc1ccc(S(=O)(=O)c2ccc(Oc3c(C)cc(Cc4cc(C)c(*)c(C)c4)cc3C)cc2)cc1 (repeat unit) | 232.00 |
| *Oc1ccc(C(c2ccc(OC(*)=S)cc2)c2cccc3ccccc23)cc1 (repeat unit) | 191.00 |
| *Oc1ccc(OC(=O)c2ccc(C(*)=O)cc2Sc2ccccc2)cc1C (repeat unit) | 130.00 |
| *c1ccc(*)cc1 (repeat unit) [Poly(1,4-phenylene)] | 278.18 ± 19 |
| *CC(=O)Nc1ccc(Oc2ccc(-c3ccc(Oc4ccc(NC(=O)CN5C(=O)c6ccc(C(c7ccc8c(c7)C(=O)N(*)C8=O)(C(F)(F)F)C(F)(F)F)cc6C5=O)cc4)cc3)cc2)cc1 (repeat unit) | 245.00 |
| *c1ccc(OC(=O)c2ccc([Si](C)(C)c3ccc(C(=O)Oc4ccc(C5(*)c6ccccc6C(=O)N5c5ccccc5)cc4)cc3)cc2)cc1 (repeat unit) | 255.00 |
| *c1cc(C(=O)O)cc(N2C(=O)CC(C3CC4C(=O)N(*)C(=O)C4c4ccccc43)C2=O)c1 (repeat unit) | 360.00 |
| *c1ccc2c(c1)C(=O)N(c1ccc(Oc3ccc(Oc4ccc(N5C(=O)c6ccc(C(*)(C(F)(F)F)C(F)(F)F)cc6C5=O)cc4)cc3)cc1)C2=O (repeat unit) | 279.00 |
| *CC(=O)NCCCCCCNC(=O)CO* (repeat unit) | 10.00 |
| *OS(=O)(=O)c1cccc(S(=O)(=O)Oc2ccc(C3(c4ccc(*)cc4)CCCCC3)cc2)c1 (repeat unit) | 127.00 |
| *c1ccc(C(=O)OCCCCCCCCCCOc2ccc(/C=C/C(=O)/C=C/c3ccc(OCCCCCCCCCCOC(=O)c4ccc(-c5nnc(*)o5)cc4)cc3)cc2)cc1 (repeat unit) | 58.00 |
| *C1CCC(CC2CCC(N3C(=O)c4ccc(-c5ccc6c(c5)C(=O)N(*)C6=O)cc4C3=O)CC2)CC1 (repeat unit) | 242.00 |
| *c1ccc(-n2ccc(-c3ccc(-c4ccn(*)n4)cc3)n2)cc1 (repeat unit) | 75.00 |
| *NC(C)(CC)C(*)=O (repeat unit) | 74.2 |
| *c1cccc(P(=O)(c2ccccc2)c2cccc(N3C(=O)c4ccc(NC(=O)OCCOc5ccc(C(C)(C)c6ccc(OCCOC(=O)Nc7ccc8c(c7)C(=O)N(*)C8=O)cc6)cc5)cc4C3=O)c2)c1 (repeat unit) | 220.00 |
| *Oc1ccc(C(C)(C)c2ccc(OC(=O)c3ccc(C(C)(CC)c4ccc(C(*)=O)cc4)cc3)cc2)cc1 (repeat unit) | 211.00 |
| *c1ccc(Oc2ccc(C(C)(C)c3ccccc3)cc2)c(-n2c(=O)c3cc4c(=O)n(*)c(=O)c4cc3c2=O)c1 (repeat unit) | 340.00 |
| *OCCOC(=O)CCCCC(=O)OCCOc1nc(-c2ccc(OCCCC)cc2)nc(*)c1-c1ccc(OC)cc1 (repeat unit) | 34.00 |
| *c1ccc(Oc2ccccc2N2C(=O)c3ccc(Oc4ccc5c(c4)C(=O)N(*)C5=O)cc3C2=O)cc1 (repeat unit) | 264.00 |
| *c1ccc2c(c1)C(=O)N(c1ccc(Oc3c(C)cc(Cc4cc(C)c(Oc5ccc(N6C(=O)c7ccc(C(*)(C(F)(F)F)C(F)(F)F)cc7C6=O)cc5)c(C)c4)cc3C)cc1)C2=O (repeat unit) | 298.00 |

| SMILES | glass transition temperature [°C] |
| --- | --- |
| *CCCCCCCCCCOc1ccc(/C=C2\CC/C(=C\c3ccc(OCCCCCCCCCCOP(=O)(O*)OC)c(OC)c3)C2=O)cc1OC (repeat unit) | 48.00 |
| *OC1CCC(OC(=O)OCCCCCCOC(*)=O)CC1 (repeat unit) | 10.00 |
| *Oc1ccc(C2(c3ccc(Oc4ccc(/C=N/N=C/c5ccc(*)cc5)cc4)cc3)c3ccccc3-c3ccccc32)cc1 (repeat unit) | 227.00 |
| *c1ccc(-c2ccc(N3C(=O)c4ccc(Oc5c(C)cc(C(C)(C)c6cc(C)c(Oc7ccc8c(c7)C(=O)N(*)C8=O)c(C)c6)cc5C)cc4C3=O)cc2C(F)(F)F)c(C(F)(F)F)c1 (repeat unit) | 262.00 |
| *CCCCOC(=O)CCCC(=O)O* (repeat unit) | -36.50 |
| *C(=O)c1ccc2c(c1)C(=O)N(c1cccc(C(c3cccc(N4C(=O)c5ccc(*)cc5C4=O)c3)(C(F)(F)F)C(F)(F)F)c1)C2=O (repeat unit) | 239.00 |
| *CC(*)(C)C(=O)OCCCCC(F)(F)C(F)(F)C(F)(F)C(F)(F)C(F)(F)C(F)(F)F (repeat unit) | 23.00 |
| *Oc1ccc(C(=O)c2cccc(NC(=O)c3cccc(C(=O)Nc4cccc(C(=O)c5ccc(*)cc5)c4)c3)c2)cc1 (repeat unit) | 191.00 |
| *CCCCCCNC(=O)CCCCCCCCC(=O)N* (repeat unit) [Poly(hexamethylene sebacamide) ] | 40 ± 4.1 |
| *CC(*)c1cc(OC)c(O)c(OC)c1 (repeat unit) | 147.00 |
| *Oc1ccc(-c2ccc(-c3ccc(Oc4ccc(C(C)(C)c5ccc(*)cc5)cc4)c(C(F)(F)F)c3)cc2)cc1C(F)(F)F (repeat unit) | 192.00 |
| *C(=O)c1ccc2c(c1)C(=O)N(c1cccc(C(=O)Nc3cccc(N4C(=O)c5ccc(*)cc5C4=O)c3)c1)C2=O (repeat unit) | 287.00 |
| *c1cccc(P(=O)(c2cccc(-n3c(=O)c4cc5c(=O)n(*)c(=O)c5c(-c5cc(C(F)(F)F)cc(C(F)(F)F)c5)c4c3=O)c2)c2cc(C(F)(F)F)cc(C(F)(F)F)c2)c1 (repeat unit) | 280.00 |
| *Oc1ccc(C2(c3ccc(OC(=O)c4cccc(C(*)=O)c4)cc3)CCC3CCCCC3C2)cc1 (repeat unit) | 248.00 |
| *c1ccc2c(c1)C(=O)N(c1c(C)cc(C3(c4cc(C)c(N5C(=O)c6ccc(C(*)(C(F)(F)F)C(F)(F)F)cc6C5=O)c(C)c4)c4ccccc4-c4ccccc43)cc1C)C2=O (repeat unit) | 361.00 |
| *CCCCCCS(=O)(=O)c1ccc(/N=N/c2ccc(N(C)CCCCCC(=O)O*)cc2)cc1 (repeat unit) | 60.50 |
| *c1cccc(-c2nc3cc(-c4ccc5c(c4)nc(*)n5C)ccc3[nH]2)c1 (repeat unit) | 346.66 |
| *CC(O)COc1ccc(S(=O)(=O)c2ccc(OCC(O)COc3c(C)cc(S(=O)(=O)c4cc(C)c(O*)c(C)c4)cc3C)cc2)cc1 (repeat unit) | 145.00 |
| *c1ccc(-c2ccc(NC(=O)c3cccc(C(=O)Nc4ccc(-c5ccc(N6C(=O)c7ccc(-c8ccc9c(c8)C(=O)N(*)C9=O)cc7C6=O)cc5)cc4)c3)cc2)cc1 (repeat unit) | 230.00 |
| *Oc1c(F)c(F)c(-c2c(F)c(F)c(Oc3ccc(Cc4ccc(*)c(C=O)c4)cc3C=O)c(F)c2F)c(F)c1F (repeat unit) | 198.00 |
